Measurements as given in patent US10131643B2, “Tizoxanide carbamate and pharmaceutical use thereof” (priority 2013, dated 2018).
≈ marks a conversion by molar mass, not a printed value.

Key:
[1] = oral administration in mice, in words; for Parameters such as Tmax, Cmax, MRT, AUC and relative bioavailability compared with nitazoxanide: calculated as tizoxanide
Helicobacter pylori = details: 103 strains of Helicobacter pylori; cited from earlier work
[2] = in vivo, cited from earlier work
PR8 influenza virus = PR8 influenza virus in MDCK cells; cited from earlier work
[3] = system: Mycobacterium tuberculosis; details: cited from earlier work
[4] = rat, in vivo, po

| SMILES | Parameters such as Tmax, Cmax, MRT, AUC and relative bioavailability compared with nitazoxanide [1] | Oral absorption compared with the control agent nitazoxanide (NTZ) [1] | also measured |
| --- | --- | --- | --- |
| CN(C)C(=O)Oc1ccccc1C(=O)Nc1ncc([N+](=O)[O-])s1 [Compound 6] | significantly superior | much better |  |
| O=C(Nc1ncc([N+](=O)[O-])s1)c1ccccc1O [tizoxanide] |  |  | 50% minimal inhibitory concentration (MIC50) (Helicobacter pylori): 1 µg/mL; 90% minimal inhibitory concentration (MIC90) (Helicobacter pylori): 4 µg/mL |
| O=C(Nc1ncc([N+](=O)[O-])s1)c1ccccc1OC(=O)N1CCCCC1 [Compound 3] | significantly superior | much better |  |
| O=C(Nc1ncc([N+](=O)[O-])s1)c1ccccc1OC(=O)N1CCOCC1 [Compound 1, 2-(5-nitrothiazol-2-yl-carbamoyl)phenylmorpholine-4-carboxylate] | significantly superior | much better |  |
| CCOC(=O)C1CCN(C(=O)Oc2ccccc2C(=O)Nc2ncc([N+](=O)[O-])s2)CC1 [Compound 5] | comparable | faster |  |
| CN1CCN(C(=O)Oc2ccccc2C(=O)Nc2ncc([N+](=O)[O-])s2)CC1 [Compound 2, 2-(5-nitrothiazol-2-yl-carbamoyl)phenyl-4-methylpiperazine-1-carboxylate] | significantly superior | faster |  |
| CC(=O)Oc1ccccc1C(=O)Nc1ncc([N+](=O)[O-])s1 [NTZ, 2-acetoxy-N-(5-nitro-2-thiazolyl)benzamide] |  |  | Detection of the parent drug in plasma, urine, bile and feces ([2]; po): not detectable; Part of the oral dose excreted by feces [2]: about ⅔; Part of the oral dose excreted by urine [2]: about ⅓; EC50 (PR8 influenza virus): 1 µg/mL (≈ 3.25 µM); EC90 (PR8 influenza virus): 7 µg/mL (≈ 22.8 µM); Minimal inhibitory concentration (MIC), median value [3]: 16 µg/mL (≈ 52.1 µM); 50% minimal inhibitory concentration (MIC50) (Helicobacter pylori): 1 µg/mL; 90% minimal inhibitory concentration (MIC90) (Helicobacter pylori): 4 µg/mL; Absolute bioavailability [4]: 7.2% |
| O=C(Nc1ncc([N+](=O)[O-])s1)c1ccccc1OC(=O)N1CCCC1 [Compound 4, 2-((5-nitrothiazol-2-yl)carbamoyl)phenyl-pyrrolidine-1-carboxylate] | significantly superior | much better |  |
